Data from patent US10183947B2, “Pyrazole derivatives useful as 5-lipoxygenase activating protein (FLAP) inhibitors” (ASTRAZENECA AB, priority 2015, dated 2019).

Assays:
[1] = test system: LTB4 production in fresh human whole blood; test: FLAP Whole Blood Assay (Test B), inhibition of LTB4 production; type: cell-based; conditions: method B: compound incubated with human whole blood at 37° C. for 4 h, then calcium ionophore A23187; LTB4 by EIA; read-out: IC50 nM (method B)
Description: FLAP Whole Blood Assay (Test B)
Compounds were tested for the inhibition of LTB4 production in fresh human whole blood obtained by venapuncture using heparin to prevent clotting. 1.5 μL compounds or DMSO carrier were dispensed into the wells of a 96-well deep-well plate in 3-fold dilution series. 500 μL hepamised whole blood was then added followed by incubation at 37° C. for 30 min (method A) or 4 h (method B). 100 μL blood was subsequently transferred in triplicate to pre-dispensed 0.5 μL 2 mM calcium ionophore (calcimycin; A23187) in a second 96-well plate. Following incubation at 37° C. for 20 min, the assays were stopped by adding 10 μL of stop solution (100 mM EGTA, pH 7.4) and the plate was transferred to ice. The plate was centrifuged at 3000 rpm at 4° C. for 10 min and […] was transferred to a fresh 96 well plate containing 90 μL pre-dispensed EIA assay buffer (0.1 M phosphate buffer+0.1% BSA). LTB4 was then measured using reagents from a commercial EIA (Cayman Chemicals). LTB4 production was defined as the LTB4 level in the presence of a given concentration of test compound minus the LTB4 level in the presence of 50 nM 5-[[4-[(2S,4R)-4-hydroxy-2-methyl-tetrahydropyran-4-yl]-2-thienyl]sulfanyl]-1-methyl-indolin-2-one. (Preparation of 5-[[4-[(2S,4R)-4-hydroxy-2-methyl-tetrahydropyran-4-yl]-2-thienyl]sulfanyl]-1-methyl-indolin-2-one was described in Org. Process Res. Dev., 2005, 9, 555-569 or EP623614 B1). Inhibition of LTB4 production was defined as the LTB4 level in the presence of a given concentration of test compound expressed as a % of the LTB4 level in the presence of DMSO. IC50 values were determined by plotting % inhibition versus log compound concentration and using a one site dose response model.

[2] = target: FLAP (human ALOX5AP expressed in COS-7 cell membranes) (Homo sapiens (Human), UniProt P20292); test: FLAP Binding Assay (Test A), competition binding with 3H-MK591 as tracer; conditions: competition with 3H-MK591 (2 nM), membranes from COS-7 cells expressing human ALOX5AP, 60 min at rt
Description: FLAP Binding Assay (Test A) Compounds were tested in a competition binding assay using ^3H-MK591 as tracer. […] Med. Chem. […] A 100,000×g pellet from COS-7 cells stably transfected with a plasmid expressing human ALOX5AP was the source of FLAP. […] Following filtration, filter plates were dried 12 h at RT (or 50° C. for 1 hour). 50 μL scintillant was then added, the filterplates were sealed and radioactivity was measured in a microbeta counter. Specific binding was defined as total binding minus non-specific binding. Total binding was defined as ^3H-MK591 bound to membranes in the absence of competitor, non-specific binding was defined as ^3H-MK591 in the presence of 0.1 mM MK-591. IC50 values were determined by plotting % inhibition versus log compound concentration and using a one site dose response model.

Chain of FLAP (human ALOX5AP expressed in COS-7 cell membranes) (P20292 whole entry): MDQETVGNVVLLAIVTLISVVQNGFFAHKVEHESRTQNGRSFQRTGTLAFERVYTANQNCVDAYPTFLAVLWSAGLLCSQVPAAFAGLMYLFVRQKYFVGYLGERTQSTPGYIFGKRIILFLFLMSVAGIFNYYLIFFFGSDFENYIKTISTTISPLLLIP

Compound	IC50 [1] [nM]	IC50 [2] [nM]
Cc1cc(-c2ccc(C(=O)[C@@H]3CCCC[C@H]3C(=O)Nc3c(C)nn4c3C(=O)NCC4)cc2)n[nH]1 [Example 28, (1R,2R)—N-(2-Methyl-4-oxo-4,5,6,7-tetrahydropyrazolo[1,5-a]pyrazin-3-yl)-2-[4-(5-methyl-1H-pyrazol-3-yl)benzoyl]cyclohexanecarboxamide]	380	3.9
Cc1nn2c(c1NC(=O)[C@@H]1CCCC[C@H]1C(=O)c1ccc(-c3cc[nH]n3)cc1)C(=O)NCC2 [Example 29, (1R,2R)—N-(2-Methyl-4-oxo-4,5,6,7-tetrahydropyrazolo[1,5-a]pyrazin-3-yl)-2-[4-(1H-pyrazol-5-yl)benzoyl]cyclohexanecarboxamide]	330	4.8
Cc1cc(-c2ccc(C(=O)[C@@H]3CCCC[C@H]3C(=O)Nc3nnco3)cc2)[nH]n1 [Example 43, (1R,2R)-2-[4-(3-Methyl-1H-pyrazol-5-yl)benzoyl]-N-(1,3,4-oxadiazol-2-yl)cyclohexanecarboxamide]	904	140

These reach a lower IC50 [1]. Values come first.

IC50 [1] [nM]	IC50 [2] [nM]	Compound
55	65	CN(C)S(=O)(=O)c1c(NC(=O)[C@@H]2CCCC[C@H]2C(=O)c2ccc(-c3ccn[nH]3)cc2)cnn1C [Example 27, (1R,2R)—N-[5-(Dimethylsulfamoyl)-1-methyl-1H-pyrazol-4-yl]-2-[4-(1H-pyrazol-5-yl)benzoyl]cyclohexanecarboxamide]
50	12	O=C(Nc1cn[nH]c1C(F)F)[C@@H]1CCCC[C@H]1C(=O)c1ccc(-c2cc[nH]n2)cc1 [Example 30, (1R,2R)—N-[5-(Difluoromethyl)-1H-pyrazol-4-yl]-2-[4-(1H-pyrazol-3-yl)benzoyl]cyclohexanecarboxamide]
